{
  "source": "patent US20050009902A1",
  "about": "“Remedies for pruritus” (priority 2001, published 2005)",
  "assay_type_in_all_cases": "in vivo, guinea pig",
  "key": {"histamine-induced models": {"test_system": "histamine-induced models", "experiment": "Ocular pruritus inhibition activity to histamine-induced models", "conditions": "for Number of eye scratchings: 10 μL/one eye, average, 12 eyes, control 22.8; for Number of eye scratchings / Eye scratching inhibition rate: 30 minutes after 1.0% histamine; for Eye scratching inhibition rate: vs physiological saline control", "procedure": "Palmidrol was suspended in a physiological saline at a concentration of 0.1% or 0.5%(w/v), and the resulting suspension was instilled into both eyes of a 5-week-old male Hartley guinea pig in 10 μL/one eye. After 10 minutes, the palmidrol suspension at the same concentration was also instilled thereinto (twice in total). A physiological saline was used as a control.\nAfter 5 minutes from the second instilling of palmidrol, a physiological saline containing 1.0% (w/v) histamine was instilled into both eyes of the guinea pig in 10 μL/one eye to induce eye scratching action.\nThe behavior of the guinea pig after administering histamine was videotaped, and the ocular pruritus was evaluated on each eye by counting actions of scratching the eye with the hind foot. The average value of the number of eye scratchings for 30 minutes after administering histamine and the eye scratching inhibition rate are shown in Table 1. In each example, 12 eyes are used.\nEye scratching inhibition rate=100−(number of eye scratchings with test compound)/(number of eye scratchings with control)×100"}, "[1]": {"test_system": "allergic conjunctivitis models", "experiment": "Ocular pruritus inhibition activity to allergic conjunctivitis models", "conditions": "for Eye scratching inhibition rate: 0.1% (w/v) instilled twice before ovalbumin, 30 minutes, 12 eyes", "procedure": "Aluminum hydroxide gel-adsorbed ovalbumin (20 μg/mL) was dissolved in a physiological saline, and the resulting solution was subconjunctivally injected into both eyes of a 4-week-old male Hartley guinea pig in 100-μL portions for active sensitization. On days 14, 16, 18, 21, 23 and 25 after the sensitization, a physiological saline containing 2.5% (w/v) ovalbumin was instilled into both eyes in 10 μL/one eye to induce allergic conjunctivitis. A physiological saline was used as a control.\nFive minutes and 15 minutes (twice in total) before the instilling of ovalbumin on days 16, 18, 21, 23 and 25 after the sensitization, a suspension of 0.1% (w/v) palmidrol in a physiological saline was instilled into both eyes of the guinea pig in 10 μL/one eye.\nThe behavior of the guinea pig for 30 minutes after the instilling of ovalbumin on days 21, 23 and 25 after the sensitization were videotaped, and the ocular pruritus was evaluated by counting the number of eye scratchings in case of instilling palmidrol and a control. In each example, 12 eyes are used."}, "[2]": {"test_system": "platelet activating factor (PAF)-induced models", "experiment": "Ocular pruritus inhibition activity to platelet activating factor-induced models", "conditions": "for Eye scratching inhibition rate: 8 eyes; for Number of eye scratchings in comparison with the controls (in words): instilled suspensions, extent depends approximately on concentration", "procedure": "The ocular pruritus inhibition activity to platelet activating factor (PAF)-induced models was examined using anandamide (test compound A), indometacin morpholinylamide (test compound B) and N-(benzo[d][1,3]dioxol-5-ylmethyl)-7-methoxy-2-oxo-8-penty loxy-1,2-dihydroquinoline-3-carboxamide (test compound C).\nTest compound A (50 mg/ml in EtOH) was suspended in a physiological saline at a concentration of 0.01% (w/v). Test compound B was suspended in a 1.0% Tween 80/physiological saline at a concentration of 0.001% or 0.01% (w/v). Test compound C was suspended in a 5.0% Tween 80/physiolosical saline at a concentration of 0.0001%, 0.001% or 0.01% (w/v). In this manner, the test compound suspensions were prepared.\nWith respect to test compounds A and B, each of the test compound suspensions was instilled into both eyes of a 5-week-old male Hartley guinea pig in 10 μL/one eye. Ten minutes later, each of the test compound suspensions was instilled thereinto at the same concentration (twice in total). With respect to test compound C, the test compound suspension was instilled into both eyes of the 5-week-old male Hartley guinea pig in 10 μL/one eye.\nSubsequently, with respect to test compounds A and B, a physiological saline containing 0.1% (w/v) of the platelet activating factor was instilled in 10 μL/one eye into both eyes of the guinea pig after 5 minutes from the second instilling of the respective test compound suspensions. With respect to test compound C, the same physiological saline was instilled in 10 μL/one eye into both eyes of the guinea pig after 15 minutes from the instilling of the test compound suspension. In this manner, the eye scratching action was induced. As controls of test compounds A, B and C, a 2.0% ethanol/physiological saline, a physiological saline and a 5.0% Tween 80/physiological saline were used respectively.\nThe behavior of the guinea pig after instilling the platelet activating factor was videotaped, and the ocular pruritus was evaluated for each eye by counting the number of actions of scratching the eye with the hind foot. The average value of the eye scratching inhibition rate for 30 minutes after instilling the platelet activating factor is shown in Table 3. In each example, 8 eyes are used."}, "[3]": {"conditions": "0.1% (w/v) suspension instilled twice"}, "[4]": {"conditions": "0.5% (w/v) suspension instilled twice"}, "[5]": {"conditions": "0.01% (w/v) suspension instilled twice, 30 minutes after 0.1% PAF"}},
  "data": [
    {"smiles": "CCCCCCCCCCCCCCCC(=O)NCCO", "note": "[Palmidrol, N-palmitoyl-ethanolamide]", "values": [
      {"measurement": "Number of eye scratchings", "setting": "histamine-induced models; [3]", "result": 8.5, "unit": "times"},
      {"measurement": "Eye scratching inhibition rate", "setting": "histamine-induced models; [3]", "result": 62.8, "unit": "%"},
      {"measurement": "Number of eye scratchings", "setting": "histamine-induced models; [4]", "result": 3.8, "unit": "times"},
      {"measurement": "Eye scratching inhibition rate", "setting": "histamine-induced models; [4]", "result": 83.2, "unit": "%"},
      {"measurement": "Number of eye scratchings in comparison with the control (in words)", "setting": "histamine-induced models; instilled 0.1% or 0.5%, extent depends on concentration", "result": "markedly decreased"},
      {"measurement": "Eye scratching inhibition rate", "setting": "[1]; Day 21 after sensitization", "result": 41.5, "unit": "%"},
      {"measurement": "Eye scratching inhibition rate", "setting": "[1]; Day 23 after sensitization", "result": 52.3, "unit": "%"},
      {"measurement": "Eye scratching inhibition rate", "setting": "[1]; Day 25 after sensitization", "result": 51.7, "unit": "%"},
      {"measurement": "Eye scratching action in comparison with the control (in words)", "setting": "[1]; 0.1% instilled", "result": "significantly inhibited"}
    ]},
    {"smiles": "CCCCCOc1c(OC)ccc2cc(C(=O)NCc3ccc4c(c3)OCO4)c(=O)[nH]c12", "note": "[Test Compound C, N-(benzo[d][1,3]dioxol-5-ylmethyl)-7-methoxy-2-oxo-8-pentyloxy-1,2-dihydroquinoline-3-carboxamide]", "values": [
      {"measurement": "Eye scratching inhibition rate", "setting": "[2]; 0.0001% (w/v) suspension instilled once, 15 minutes before 0.1% PAF, 30 minutes", "result": 22.7, "unit": "%"},
      {"measurement": "Eye scratching inhibition rate", "setting": "[2]; 0.001% (w/v) suspension instilled once, 15 minutes before 0.1% PAF, 30 minutes", "result": 34.3, "unit": "%"},
      {"measurement": "Eye scratching inhibition rate", "setting": "[2]; 0.01% (w/v) suspension instilled once, 15 minutes before 0.1% PAF, 30 minutes", "result": 44.2, "unit": "%"},
      {"measurement": "Number of eye scratchings in comparison with the controls (in words)", "setting": "[2]", "result": "markedly decreased"}
    ]},
    {"smiles": "CCCCC/C=C\\C/C=C\\C/C=C\\C/C=C\\CCCC(=O)NCCO", "note": "[Test compound A, anandamide]", "values": [
      {"measurement": "Eye scratching inhibition rate", "setting": "[2]; [5]", "result": 40.9, "unit": "%"},
      {"measurement": "Number of eye scratchings in comparison with the controls (in words)", "setting": "[2]", "result": "markedly decreased"}
    ]},
    {"smiles": "COc1ccc2c(c1)c(CC(=O)N1CCOCC1)c(C)n2C(=O)c1ccc(Cl)cc1", "note": "[Test compound B, indometacin morpholinylamide]", "values": [
      {"measurement": "Eye scratching inhibition rate", "setting": "[2]; 0.001% (w/v) suspension instilled twice, 30 minutes after 0.1% PAF", "result": 38.7, "unit": "%"},
      {"measurement": "Eye scratching inhibition rate", "setting": "[2]; [5]", "result": 52.9, "unit": "%"},
      {"measurement": "Number of eye scratchings in comparison with the controls (in words)", "setting": "[2]", "result": "markedly decreased"}
    ]}
  ]
}
